From patent publication US12404304B1, “Telomerase reverse transcriptase (TERT) expression enhancing compounds and methods for using the same” (Sierra Sciences, LLC, priority 2007, dated 2025) come the findings set out here.

Where two headings read alike, the source gives them in different places.

Series [1] concerns human TERT expression (hTERT mRNA). Kind of series: Quantitative real-time RT-PCR of hTERT mRNA expression (Ct, transcripts) in compound-treated cells. It counts as cell-based. An excerpt: Telomerase is a ribonucleoprotein complex composed of the catalytic protein subunit (human telomerase reverse transcriptase or hTERT) and the RNA template. hTERT expression level can be measured by PCR.
Briefly, amplification of the target sequence is monitored per PCR cycle by detecting the fluorescence signal emitted by an internal probe that is degraded by the 5′ nuclease activity of the Taq polymerase. The emission signal accumulates in each sample, and the Ct required to reach a given fluorescence threshold is determined (Ct stands for Cycle Threshold and is a measure of the number of PCR cycles that are required to amplify a target—thus, a lower Ct score means that there is more abundant hTERT mRNA). Thus, the Ct value of a sample inversely correlates to the quantity of the starting cDNA which correlates to the number of mRNA transcripts. Using the cDNA of known quantity, a standard curve can be generated and used to determine the starting amount of mRNA transcripts based on the […] of each sample.
Quantitative real-time PCR can be done on cDNA from test compound-treated and nontreated cells by use of a ABI Prism 7900 Sequence Detection System (PE Applied Biosystems, Foster City, CA) following the Assays-on-Demand protocol (PE Applied Biosystems, Foster City, CA). Quantitative data can be analyzed using the Sequence Detection System software version 2.1 (PE Applied Biosystems).
The following compounds were tested in assays designed to identify compounds that enhance human TERT expression.
A general note: Quantitative PCR measures a nucleic acid by following its amplification.

The test system of another series is viable cells in culture. In words: Cell viability assay (CellTiter-Glo Luminescent Cell Viability Assay, ATP quantitation, percent of vehicle control). On the technique in general: In ATP-based viability assays light output follows the ATP content of the culture.

As for `COc1ccc(C(=O)NC(=S)Nc2ccc(C(=O)O)cc2)cc1` [compound 1381], the “Average Number of hTERT Transcripts” value in series [1] was 8.62. Further, in the series on viable cells in culture, the “Average Cell Viability after 24 Hours (% DMSO)” value is 87.38 % DMSO.
Take `CCOC(=O)c1ccc(N2C(=O)c3[nH]nc(-c4cccs4)c3C2c2ccc(O)c(OCC)c2)cc1` (stereo not drawn) [compound 1199]: in series [1] (quantitative real-time RT-PCR), the “Average Number of hTERT Transcripts” value is on record as 110.78. Further, the “Average Cell Viability after 24 Hours (% DMSO)” value in the series on viable cells in culture is given as 57.55 % DMSO.
The corresponding values for `O=C(O)/C=C1\NC(=O)c2ccccc21` [compound 1354] are 14.31 and 96.80 % DMSO.
Consider `CCc1c(C)nn(-c2nc3ccccc3s2)c1O` [compound 1114], for which the “Average Number of hTERT Transcripts” value in series [1] (quantitative real-time RT-PCR) was found to be 148.58. For the same compound, in the series on viable cells in culture, the “Average Cell Viability after 24 Hours (% DMSO)” value is on record as 89.40 % DMSO.
The corresponding values for `Cc1sc(CO)c(Sc2ccccc2)c1C(=O)O` [compound 1314] are 8.82 and 109.57 % DMSO.
In the case of `O=C(N/N=C/c1cc(Br)cc(I)c1O)c1ccccn1` [compound 1274], the “Average Number of hTERT Transcripts” value in series [1] (quantitative real-time RT-PCR) was determined as 20.59. Besides, in the series on viable cells in culture, the “Average Cell Viability after 24 Hours (% DMSO)” value was found to be 75.52 % DMSO.
Turning to `CCOC(=O)c1ccc(N2C(=O)c3[nH]nc(-c4ccccc4)c3C2c2ccccc2OC)cc1` (stereo not drawn) [compound 1194], the “Average Number of hTERT Transcripts” value in series [1] (quantitative real-time RT-PCR) is recorded as 6.20. In addition, the “Average Cell Viability after 24 Hours (% DMSO)” value in the series on viable cells in culture was 76.71 % DMSO.
On to `O=C(CCc1ccccc1)NC(c1cccc([N+](=O)[O-])c1)c1c(O)ccc2ccccc12` (stereo not drawn) [compound 1458], for which the “Average Number of hTERT Transcripts” value in series [1] worked out at 10.26. Also, the “Average Cell Viability after 24 Hours (% DMSO)” value with viable cells in culture stood at 62.79 % DMSO.
Take `Cc1ccc(S(=O)(=O)Nc2ccccc2C(=O)NCCc2ccccc2)cc1[N+](=O)[O-]` [compound 1424]: the “Average Number of hTERT Transcripts” value in series [1] was 37.45. Besides, the “Average Cell Viability after 24 Hours (% DMSO)” value in the series on viable cells in culture was determined as 94.37 % DMSO.
On to `COc1cc([N+](=O)[O-])cc2cc(C(=O)NCCCN3CCOCC3)c(=O)oc12` [compound 1311], for which, in series [1] (quantitative real-time RT-PCR), the “Average Number of hTERT Transcripts” value was determined as 4.38. For the same compound, in the series on viable cells in culture, the “Average Cell Viability after 24 Hours (% DMSO)” value came out at 92.83 % DMSO.
Regarding `O=C(COc1ccccc1)Nc1ccc(C(=O)NCC2COc3ccccc3O2)cc1` (stereo not drawn) [compound 1553], the “Average Number of hTERT Transcripts” value in series [1] was 23.58. Moreover, the “Average Cell Viability after 24 Hours (% DMSO)” value in the series on viable cells in culture is given as 77.33 % DMSO.
Regarding `CC(Oc1cccc2cccnc12)C(=O)N/N=C/c1cccc2cccnc12` (stereo not drawn) [compound 1291], in series [1] (quantitative real-time RT-PCR), the “Average Number of hTERT Transcripts” value stood at 47.89. Further, the “Average Cell Viability after 24 Hours (% DMSO)” value in the series with viable cells in culture is on record as 77.64 % DMSO.
`CCCNC(=O)c1cc(-c2ccc(F)cc2)on1` [compound 1180]: the “Average Number of hTERT Transcripts” value in series [1] (quantitative real-time RT-PCR) is given as 56.10. Also, the “Average Cell Viability after 24 Hours (% DMSO)” value in the series with viable cells in culture is given as 81.47 % DMSO.
Regarding `COc1cc([C@@H]2c3cc4c(cc3C(OC3O[C@@H]5COC(C)O[C@H]5[C@H](O)[C@H]3O)C3COC(=O)[C@@H]32)OCO4)cc(OC)c1O` (stereo partly drawn) [compound 1224], in series [1] (quantitative real-time RT-PCR), the “Average Number of hTERT Transcripts” value was 89.52.
Consider `Oc1c2c(nn1-c1nc3ccccc3s1)CCCC2` [compound 1113], for which the “Average Number of hTERT Transcripts” value in series [1] (quantitative real-time RT-PCR) was determined as 66.98. For the same compound, the “Average Cell Viability after 24 Hours (% DMSO)” value in the series on viable cells in culture is given as 89.80 % DMSO.
As to `CCC(=O)Oc1cccc2ccc(/C=C/c3ccccc3Cl)nc12` [compound 1432], the “Average Number of hTERT Transcripts” value in series [1] is 19.46. Further, the “Average Cell Viability after 24 Hours (% DMSO)” value with viable cells in culture was 86.95 % DMSO.
As for `Cc1[nH]c2c(-c3cccc(Br)c3)cnn2c(=O)c1Cc1ccccc1` [compound 1147], the “Average Number of hTERT Transcripts” value in series [1] (quantitative real-time RT-PCR) was found to be 29.83. The “Average Cell Viability after 24 Hours (% DMSO)” value in the series with viable cells in culture was determined as 61.72 % DMSO.
For `Cc1cccc(Nc2nc3nonc3nc2Nc2ccc(F)cc2)c1C` [compound 1231] the same measures were 61.08 and 37.70 % DMSO.
For `CCC(C)Cn1c(CO)nc2ccccc21` (stereo not drawn) [compound 1340] the same measures were 4.37 and 106.88 % DMSO.
In the case of `NCCC(=O)N[C@@H](Cc1cnc[nH]1)C(=O)O` [compound 1557], the “Average Number of hTERT Transcripts” value in series [1] stood at 54.80. Moreover, the “Average Cell Viability after 24 Hours (% DMSO)” value in the series with viable cells in culture was determined as 97.77 % DMSO.
As to `CC(=O)NC(c1ccco1)c1cc([N+](=O)[O-])c2cccnc2c1O` (stereo not drawn) [compound 1034], the “Average Cell Viability after 24 Hours (% DMSO)” value in the series with viable cells in culture amounted to 83.39 % DMSO.
With `CN1CCN(Cc2cc(COCc3ccccc3)c3cccnc3c2O)CC1` [compound 1003], the “Average Cell Viability after 24 Hours (% DMSO)” value in the series on viable cells in culture is 73.53 % DMSO.
On the same count and under the same terms, then `CC(=O)NC(c1ccc(Br)cc1)c1ccc2cccnc2c1O` (stereo not drawn) [compound 1022], with 63.83 % DMSO; and `CC(=O)NC(c1ccc(C(C)C)cc1)c1ccc2cccnc2c1O` (stereo not drawn) [compound 1030], with 73.78 % DMSO; and `CC(=O)NC(c1cccs1)c1cc(Cl)c2cccnc2c1O` (stereo not drawn) [compound 1052], with 60.80 % DMSO.
For the compound `Oc1c(C(Nc2ccccn2)c2c(Cl)cccc2Cl)ccc2cccnc12` (stereo not drawn) [compound 1009], in the series with viable cells in culture, the “Average Cell Viability after 24 Hours (% DMSO)” value is listed as 68.59 % DMSO.
Still for that read-out and setting: next, `O=[N+]([O-])c1cc(CN2CCN(c3ccccc3)CC2)c(O)c2ncccc12` [compound 1029]: 32.00 % DMSO.
On to `Cc1ccc2c(I)cc(I)c(O)c2n1` [compound 1105], for which the “Average Cell Viability after 24 Hours (% DMSO)” value in the series on viable cells in culture is on record as 58.63 % DMSO.
On to `CCCOCc1cc(CN2CCN(C)CC2)c(O)c2ncccc12` [compound 1101], for which, in the series with viable cells in culture, the “Average Cell Viability after 24 Hours (% DMSO)” value is reported as 76.69 % DMSO.
On the same count and under the same terms, next, `CCCCC(=O)NC(c1ccc(Cl)cc1)c1cc([N+](=O)[O-])c2cccnc2c1O` (stereo not drawn) [compound 1054]: 46.45 % DMSO.
The same measure, in the same setting: then `Cc1ccnc(NC(c2cccc(Br)c2)c2ccc3ccc(C)nc3c2O)c1` (stereo not drawn) [compound 1083], with 74.39 % DMSO; and `Oc1c(I)cc(I)c2cccnc12` [compound 1018], with 56.90 % DMSO.
For the compound `CCCCC(=O)NC(/C=C/c1ccccc1)c1cc([N+](=O)[O-])c2cccnc2c1O` (stereo not drawn) [compound 1069], the “Average Cell Viability after 24 Hours (% DMSO)” value in the series with viable cells in culture is 80.34 % DMSO.
On the same count and under the same terms, then `CCC(=O)NC(c1ccc(C)cc1)c1cc([N+](=O)[O-])c2cccnc2c1O` (stereo not drawn) [compound 1049], with 65.63 % DMSO; and `CC(C)C(=O)NC(c1ccc(C(C)C)cc1)c1cc([N+](=O)[O-])c2cccnc2c1O` (stereo not drawn) [compound 1071], with 81.62 % DMSO.
Same read-out and setting: next, `CCCC(=O)NC(c1ccc(O)c(OCC)c1)c1cc([N+](=O)[O-])c2cccnc2c1O` (stereo not drawn) [compound 1036]: 73.28 % DMSO; `Cc1ccc(S(=O)(=O)Nc2cc(Cl)c(O)c3ncccc23)cc1` [compound 1092]: 66.43 % DMSO; `COc1ccc(C(=O)NC(c2ccc(Cl)cc2)c2cc(Cl)c3cccnc3c2O)cc1` (stereo not drawn) [compound 1014]: 28.33 % DMSO.
With `CC(=O)NC(c1ccccc1Cl)c1ccc2cccnc2c1O` (stereo not drawn) [compound 1025], the “Average Cell Viability after 24 Hours (% DMSO)” value in the series with viable cells in culture worked out at 93.50 % DMSO.
Take `O=C(NC(c1ccc2c(c1)OCO2)c1cc([N+](=O)[O-])c2cccnc2c1O)C1CCCCC1` (stereo not drawn) [compound 1068]: in the series with viable cells in culture, the “Average Cell Viability after 24 Hours (% DMSO)” value turned out to be 61.20 % DMSO.
On the same count and under the same terms, next, `COc1ccc(C(NC(=O)C(C)C)c2cc([N+](=O)[O-])c3cccnc3c2O)cc1OC` (stereo not drawn) [compound 1481]: 78.30 % DMSO; `Oc1c(Br)cc(Br)c2cccnc12` [compound 1019]: 35.74 % DMSO; `CC(=O)NC(c1cccs1)c1ccc2cccnc2c1O` (stereo not drawn) [compound 1058]: 69.11 % DMSO.
The same measure, in the same setting: next, `Cc1ccnc(NC(c2cccc(Cl)c2)c2ccc3ccc(C)nc3c2O)c1` (stereo not drawn) [compound 1080]: 72.44 % DMSO.
Same read-out and setting: then `Cc1ccc2ccc(C(Nc3ccccn3)c3cccc([N+](=O)[O-])c3)c(O)c2n1` (stereo not drawn) [compound 1078], with 67.66 % DMSO; and `Oc1c(C(Nc2ccccc2Cl)c2ccccn2)ccc2cccnc12` (stereo not drawn) [compound 1095], with 56.93 % DMSO.
Consider `CC1CCN(Cc2cc(COC(C)C)c3cccnc3c2O)CC1` [compound 1103], for which the “Average Cell Viability after 24 Hours (% DMSO)” value in the series with viable cells in culture came out at 58.35 % DMSO.
Take `CCN(CC)Cc1ccc(O)c2ncccc12` [compound 1096]: the “Average Cell Viability after 24 Hours (% DMSO)” value with viable cells in culture is recorded as 67.13 % DMSO.
For `Cc1cc(NC(c2ccccn2)c2ccc3cccnc3c2O)no1` (stereo not drawn) [compound 1104], in the series on viable cells in culture, the “Average Cell Viability after 24 Hours (% DMSO)” value worked out at 71.14 % DMSO.
As to `CC(=O)NC(c1ccccc1)c1cc([N+](=O)[O-])c2cccnc2c1O` (stereo not drawn) [compound 1050], in the series with viable cells in culture, the “Average Cell Viability after 24 Hours (% DMSO)” value is reported as 62.77 % DMSO.
Consider `Cc1ccc2ccc(C(Nc3ccccn3)c3ccccc3Cl)c(O)c2n1` (stereo not drawn) [compound 1480], for which the “Average Cell Viability after 24 Hours (% DMSO)” value with viable cells in culture worked out at 79.43 % DMSO.
On the same count and under the same terms, then `CCCC(=O)NC(c1ccc(Cl)cc1)c1cc([N+](=O)[O-])c2cccnc2c1O` (stereo not drawn) [compound 1044], with 85.35 % DMSO.
The same measure, in the same setting: next, `CCN1CCN(Cc2ccc3cccnc3c2O)CC1` [compound 1089]: 89.98 % DMSO.
